From paper PMC7822874, “Chemoprotective antimalarials identified through quantitative high-throughput screening of Plasmodium blood and liver stage parasites” (Scientific Reports, 2021)
Where “and” joins values, the source holds several entries; their conditions need not be identical. Equal values may be shown once.

Assays:
[1] = test system: T1, Plasmodium falciparum Dd2-attB (parental line), asexual blood stages; experiment: microbe, parasite or virus in culture; parameters: replicate k of 3 (each line is one of three independent assays; the three lines of one compound and parasite line follow each other); conditions: n = 1; for Individual replicates / Log AC50 (M): 72 h; for AC50: Plasmodium falciparum, DD2, 72 h, read-out: Individual replicates / Log AC50 (converted)
T1 construct: Dd2-attB, the isogenic parental line
Procedure, shortened: (§1)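 Statistics: two-sided Student's t-test between parental and transgenic values, from three independent assays. The transgene encodes a fumarate-dependent DHODH from yeast, independent of the parasite mETC.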

[2] = test system: T2, Plasmodium falciparum Dd2-attB-ScDHODH (transgenic line expressing yeast DHODH), asexual blood stages; experiment: organism not typed; parameters: replicate k of 3 (each line is one of three independent assays; the three lines of one compound and parasite line follow each other); conditions: 72 h, n = 1; for AC50: read-out: Individual replicates / Log AC50 (converted)
T2 construct: Dd2-attB-ScDHODH, the transgenic line that expresses yeast DHODH
Procedure, shortened: as §1

Compound	Individual replicates / Log AC50 (M) [1]	AC50 [1] [µM]	Individual replicates / Log AC50 (M) [2]	AC50 [2] [µM]
Cc1cccc2nc(-c3ccccn3)c(Nc3ccc(F)cc3)n12 [NCGC00106061-03]	-5.2986 Log AC50 (M)	5.03	-5.2986 Log AC50 (M) and -5.0986 Log AC50 (M)	5.64
Cc1nn2c(c1-c1ccccc1-c1ccccc1)N(CCCc1ccccc1)CCC2 [NCGC00500005-01]	-5.0486 Log AC50 (M)	7.97	-5.0486 Log AC50 (M) and -4.8986 Log AC50 (M)	8.94
Oc1ccc(Nc2ccccc2F)c2cccnc12 [NCGC00184886-01]	-5.6486 Log AC50 (M) and -5.5486 Log AC50 (M)	3.56	-5.5986 Log AC50 (M)	4.48
O=C(c1cccc(-c2cc(O)c3ncccc3c2)c1)N1CCOCC1 [NCGC00244534-01]	-5.0486 Log AC50 (M) and -5.0986 Log AC50 (M)	12.6	-5.0486 Log AC50 (M)	14.2
COC(=O)c1ccc(O)c2ncc(-c3ccc(C(=O)NCCCN(C)C)cc3)cc12 [NCGC00189510-01]	-5.1486 Log AC50 (M) and -5.1986 Log AC50 (M)	7.97	-4.7986 Log AC50 (M) and -5.1486 Log AC50 (M)	–
CC(Cc1cnccn1)Nc1cnc2c(O)ccc(C(=O)O)c2c1 (stereo not shown) [NCGC00241766-01]	-4.8486 Log AC50 (M)	15.9	–	7.97
O=C(O)c1ccc(O)c2ncc(N3CCCN(CCCc4ccncc4)CC3)cc12 [NCGC00247752-01]	-4.7486 Log AC50 (M)	12.6	-4.7986 Log AC50 (M) and -4.7486 Log AC50 (M)	17.8
O=[S+]([O-])(Nc1ccc(O)c2ncccc12)c1ccccc1F [NCGC00184887-01]	-5.0986 Log AC50 (M) and -5.1486 Log AC50 (M)	14.2	–	14.2
O=C(O)c1ccnc2cc(C(OCCCN3CCCCC3)c3ccccc3Cl)[nH]c12 (stereo not shown) [NCGC00421948-01]	-4.9486 Log AC50 (M)	7.97	–	5.03
Cc1cccc(N2CCN(C(=O)Cn3ncc4c3-c3ccccc3OC4)CC2)c1C [NCGC00112661-03]	-4.9486 Log AC50 (M) and -4.7486 Log AC50 (M)	–	-4.8986 Log AC50 (M) and -5.0986 Log AC50 (M)	–
CCCN1CCCc2cc(CN(CCCN3CCOCC3)C(=O)Nc3ccc(Cl)c(Cl)c3)ccc21 [NCGC00140597-02]	-5.3486 Log AC50 (M) and -5.2986 Log AC50 (M)	3.99	-5.3986 Log AC50 (M) and -5.0986 Log AC50 (M)	3.99
O=C(NCCCCCN1CCOCC1)c1cccc(-c2cc(O)c3ncccc3c2)c1 [NCGC00249387-01]	-4.9986 Log AC50 (M)	7.1	-4.6986 Log AC50 (M) and -5.0486 Log AC50 (M) and -4.7986 Log AC50 (M)	–
O=C1C(c2ccc(C(F)(F)F)cc2)=C(Nc2ccc(Cl)cc2)c2ccccc21 [NCGC00107304-02]	-6.0486 Log AC50 (M) and -5.9486 Log AC50 (M) (2×)	–	-5.1986 Log AC50 (M) and -5.3486 Log AC50 (M) and -5.6486 Log AC50 (M)	–
